Assay results published in patent publication US20100009917A1, “Modulating Enzymatic Processes by Addition of Diolcontaining Substances” (priority 2007, published 2010).
Like-named read-outs stand apart in the source and are kept apart here.

Target: T1, TGase MTG P2 (Streptomyces mobaraensis, UniProt P81453)
T1 construct: made in house; host or cells: E. coli
Format: biochemical, Streptovercilium mobaraense
Protocol: TGase: • (a) TGase Activa WM from Ajinomoto, 60 mg/ml in 20 mM Phosphate buffer pH 8.5. The Activa WM enzyme from Streptoverticillium mobaraense is formulated under dry form in maltodextrins and contains 1% w/w of protein) (6.7 μl)); or • (b) TGase MTG P2 from Streptovercilium mobaraense expressed in soluble form using E. coli as expression system was formulated in 20 mM NaPhosphate buffer, pH 6.0, with 2 mM DTT and 5 w/v % maltodextrin. The concentration of the enzyme was between 0.7 and 4.5 mg/ml.
Capillary electrophoresis (CE) was carried out using an Agilent Technologies 3D-CE system (Agilent Technologies). Data acquisition and signal processing were performed using Agilent Technologies 3DCE ChemStation. The capillary was a 64.5 cm (56.0 cm efficient length) 50 μm i.d. “Extended Light Path Capillary” from Agilent. UV detection was performed at 200 nm (16 nm Bw, Reference 380 nm and 50 nm Bw). The running electrolyte was phosphate buffer 50 mM pH7.0. The capillary was conditioned with 0.1M NaOH for 3 min, then with Milli-Q water for 2 min and with the electrolyte for 3 min.
After each run, the capillary was flushed with milli-Q water for 2 min, then with phosphoric acid for 2 min, and with milli-Q water for 2 min. The hydrodynamic injection was done at 50 mbar for 4.0 s. The voltage was +25 kV. The capillary temperature was 30 C and the runtime was 10.5 min.
To a 1M solution of […] in triethanolamine 20 mM pH8.6 buffer (14 μl) was added triethanolamine 20 mM pH8.6 buffer (20.6 μl), ethylene glycol (53.6 μl) (40% w/v)), and a solution of human growth hormone (50 mg/ml) in triethanolamine 20 mM pH8.6 buffer (40 μl). The reaction was started by the addition of the TGase MTG P2 solution (0.35 mg/ml, 5.8 μl). The reaction mixture was incubated at ambient temperature and followed on CE.
(§1) The reaction was carried out in an analogous manner to the above method using the following concentrations: • [hGH]=0.67 mM (14.9 mg/ml final concentration) • [1,3-diamino 2-propanol]=300 mM • Buffer: 20 mM Triethanolamine pH 8.6 • +/−Ethylene glycol 40% (v/v) • [TGase MTG P2]=0.39 μM
The reaction was carried out in an analogous manner to the above method using the following concentrations: • [hGH]=0.67 mM (14.9 mg/ml final concentration) • [1,3-diamino 2-propanol]=300 mM • Buffer: 20 mM Triethanolamine pH 8.6 • +/−Ethylene glycol 10-40% (v/v) • [TGase MTG P2]=0.39 μM
The reaction was carried out in an analogous manner to the above method using the following concentrations: • [hGH]=0.67 mM (14.9 mg/ml final concentration) • [1,3-diamino 2-propanol]=300 mM • Buffer: 20 mM Triethanolamine pH 8.6 • +/−Ethylene glycol 40% (v/v) • [TGase MTG P2]=0.39 μM or 0.16 μM
as §1, with “out with ethylene glycol, glycerol, propylene glycol and 1,3 propanediol” for “out”, “+/−enhancing compound 7.18 M” for “+/−Ethylene glycol 40% (v/v)”
The reaction was carried out with glycerol in an analogous manner to the above method, except for the fact that more enzyme was added after five hours of reaction time. The reaction used the following concentrations: • [hGH]=0.67 mM (14.9 mg/ml final concentration) • [1,3-diamino 2-propanol]=300 mM • Buffer: 20 mM Triethanolamine pH 8.6 • Glycerol 7.18 M • [TGase MTG P2]=0.39 μM then 1.17 μM at 5 hours

[1] = enhancing compound 7.18 M, TGase MTG P2 0.39 μM, FIG. 7

T1 sequence (P81453 77-407): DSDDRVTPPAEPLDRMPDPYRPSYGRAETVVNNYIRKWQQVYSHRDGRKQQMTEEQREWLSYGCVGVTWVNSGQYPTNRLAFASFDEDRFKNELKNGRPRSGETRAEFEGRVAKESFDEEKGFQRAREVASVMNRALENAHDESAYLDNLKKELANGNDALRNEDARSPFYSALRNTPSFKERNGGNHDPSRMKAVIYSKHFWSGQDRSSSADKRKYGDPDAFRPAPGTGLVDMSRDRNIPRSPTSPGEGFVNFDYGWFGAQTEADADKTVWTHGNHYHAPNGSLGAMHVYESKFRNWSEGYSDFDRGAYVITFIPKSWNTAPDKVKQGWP

OCC(O)CO [Glycerol, glycerol]
selectivity of the reaction: improved the selectivity of the reaction | side products (pos.40-TA-hGH and di-transaminated hGH) formed [1]: reduce the amount of side products | yield when more enzyme is added (glycerol 7.18 M, TGase MTG P2 0.39 μM then 1.17 μM at 5 hours, FIG. 8): can be increased

OCCCO [1,3 propanediol, reference compound]
effect on the enzyme reaction (1,3 propanediol 7.18 M, TGase MTG P2 0.39 μM, FIG. 7): completely inhibited the reaction

OCCO [ethylene glycol]
product yield, varying enzyme concentration: highest product yield | yield of pos.141 TA-hGH with rising ethylene glycol concentration: increased yield | yield, comparison of compounds of related structures: highest yield | maximum yield of the desired pos.141-hGH (pH 8.6): 75%

CC(O)CO (stereo not drawn) [Propylene glycol, propylene glycol]
yield, comparison of compounds of related structures [1]: next highest yield
